What was measured:
Assay in all cases: Kinase inhibitor library screening, PrestoBlue cell viability, 1 or 10 μM, 72 h
[1] = system: 501Mel-XP cells (Vemurafenib-resistant); conditions: 501Mel XP, in %
[2] = system: IGR37-GP cells (Dabrafenib-resistant); conditions: IGR37 GP
501Mel cells (parental) = conditions: 501Mel Parental, in %
How it was run: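 Kinase inhibitors added at two fixed concentrations; 72 h exposure; PrestoBlue readout; % viability vs untreated; n ≥ 2 per line.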

[3] = system: 501Mel-GP cells (Dabrafenib-resistant); conditions: 501Mel GP, in %
[4] = system: IGR37-XP cells (Vemurafenib-resistant); conditions: IGR37 XP
A375 cells (parental) = conditions: A375 Parental
[5] = system: A375-XP cells (Vemurafenib-resistant); conditions: A375 XP
[6] = system: A375-GP cells (Dabrafenib-resistant); conditions: A375 GP
IGR37 cells (parental) = conditions: IGR37 Parental, in %

## Cc1cccc(-c2[nH]c(C(C)(C)C)nc2-c2ccc3nccnc3c2)n1 [SB 525334]
[1]; 1μΜ
  cell viability (kinase inhibitor library screening): 100.5
[1]; 10μΜ
  cell viability (kinase inhibitor library screening): 78.5
[2]; 1μΜ, in %
  cell viability (kinase inhibitor library screening): 99.0
[2]; 10μΜ, in %
  cell viability (kinase inhibitor library screening): 73.8
501Mel cells (parental); 1μΜ
  cell viability (kinase inhibitor library screening): 98.2
501Mel cells (parental); 10μΜ
  cell viability (kinase inhibitor library screening): 90.3
[3]; 1μΜ
  cell viability (kinase inhibitor library screening): 110.1
[3]; 10μΜ
  cell viability (kinase inhibitor library screening): 89.8
[4]; 1μΜ, in %
  cell viability (kinase inhibitor library screening): 91.6
[4]; 10μΜ, in %
  cell viability (kinase inhibitor library screening): 60.0
A375 cells (parental); 1μΜ, in %
  cell viability (kinase inhibitor library screening): 112.1
A375 cells (parental); 10μΜ, in %
  cell viability (kinase inhibitor library screening): 110.1
[5]; 1μΜ, in %
  cell viability (kinase inhibitor library screening): 109.3
[5]; 10μΜ, in %
  cell viability (kinase inhibitor library screening): 103.4
[6]; 1μΜ, in %
  cell viability (kinase inhibitor library screening): 114.6
[6]; 10μΜ, in %
  cell viability (kinase inhibitor library screening): 93.3
IGR37 cells (parental); 1μΜ
  cell viability (kinase inhibitor library screening): 104.1
IGR37 cells (parental); 10μΜ
  cell viability (kinase inhibitor library screening): 104.6

## C=CC(=O)Nc1cccc(Sc2nc(Nc3ccc(N4CCN(C)CC4)cc3)ncc2Cl)c1 [WZ8040]
[1]; 1μΜ, 72 h
  cell viability, 501Mel XP, 1μΜ: 96.4
[1]; 10μΜ, 72 h
  cell viability, 501Mel XP, 10μΜ: 0.0442
[2]; 10μΜ, 72 h
  cell viability, IGR37 GP, 10μΜ: 2.1%
[2]; 1μΜ, 72 h, in %
  cell viability, IGR37 GP, 1μΜ: 90.2
501Mel cells (parental); 1μΜ, 72 h
  cell viability, 501Mel Parental, 1μΜ: 98.5
501Mel cells (parental); 10μΜ, 72 h
  cell viability, 501Mel Parental, 10μΜ: -0.212
[3]; 10μΜ, 72 h
  cell viability, 501Mel GP, 10μΜ: 0.0662
[4]; 10μΜ, 72 h
  cell viability, IGR37 XP, 10μΜ: 1.2%
[4]; 1μΜ, 72 h, in %
  cell viability, IGR37 XP, 1μΜ: 79.2
A375 cells (parental); 1μΜ, 72 h, in %
  cell viability, A375 Parental, 1μΜ: 97.5
A375 cells (parental); 10μΜ, 72 h, in %
  cell viability, A375 Parental, 10μΜ: 1.4
[5]; 1μΜ, 72 h, in %
  cell viability, A375 XP, 1μΜ: 104.2
[5]; 10μΜ, 72 h, in %
  cell viability, A375 XP, 10μΜ: 0.5
[6]; 1μΜ, 72 h, in %
  cell viability, A375 GP, 1μΜ: 98.2
[6]; 10μΜ, 72 h, in %
  cell viability, A375 GP, 10μΜ: 1.6
IGR37 cells (parental); 10μΜ, 72 h
  cell viability, IGR37 Parental, 10μΜ: 0.328

## Cn1c(=O)n(-c2ccc(C(C)(C)C#N)cc2)c2c3cc(-c4cnc5ccccc5c4)ccc3ncc21 [BEZ235 (NVP-BEZ235)]
[1]; 1μΜ, 72 h
  Cell viability in kinase inhibitor library screening, 501Mel XP, 1μΜ: 11.4
[1]; 10μΜ, 72 h
  Cell viability in kinase inhibitor library screening, 501Mel XP, 10μΜ: 0.9
[2]; 10μΜ, 72 h
  Cell viability in kinase inhibitor library screening, IGR37 GP, 10μΜ: 6.1%
[2]; 1μΜ, 72 h, in %
  Cell viability in kinase inhibitor library screening, IGR37 GP, 1μΜ: 53.8
501Mel cells (parental); 1μΜ, 72 h
  Cell viability in kinase inhibitor library screening, 501Mel Parental, 1μΜ: 13.9
501Mel cells (parental); 10μΜ, 72 h
  Cell viability in kinase inhibitor library screening, 501Mel Parental, 10μΜ: 2.6
[3]; 1μΜ, 72 h
  Cell viability in kinase inhibitor library screening, 501Mel GP, 1μΜ: 19.1
[3]; 10μΜ, 72 h
  Cell viability in kinase inhibitor library screening, 501Mel GP, 10μΜ: 6.4
[4]; 10μΜ, 72 h
  Cell viability in kinase inhibitor library screening, IGR37 XP, 10μΜ: 5.2%
[4]; 1μΜ, 72 h, in %
  Cell viability in kinase inhibitor library screening, IGR37 XP, 1μΜ: 49.3
A375 cells (parental); 10μΜ, 72 h
  Cell viability in kinase inhibitor library screening, A375 Parental, 10μΜ: 10.9
A375 cells (parental); 1μΜ, 72 h
  Cell viability in kinase inhibitor library screening, A375 Parental, 1μΜ: 23.9
[5]; 1μΜ, 72 h
  Cell viability in kinase inhibitor library screening, A375 XP, 1μΜ: 20.9
[5]; 10μΜ, 72 h
  Cell viability in kinase inhibitor library screening, A375 XP, 10μΜ: 13.2
[6]; 1μΜ, 72 h
  Cell viability in kinase inhibitor library screening, A375 GP, 1μΜ: 22.0
[6]; 10μΜ, 72 h
  Cell viability in kinase inhibitor library screening, A375 GP, 10μΜ: 8.5
IGR37 cells (parental); 1μΜ, 72 h
  Cell viability in kinase inhibitor library screening, IGR37 Parental, 1μΜ: 26.1
IGR37 cells (parental); 10μΜ, 72 h
  Cell viability in kinase inhibitor library screening, IGR37 Parental, 10μΜ: 12.4

From article PMC6364417, “Kinase inhibitor library screening identifies synergistic drug combinations effective in sensitive and resistant melanoma cells” (Journal of Experimental & Clinical Cancer Research : CR, 2019)
